# Data reported in patent publication US6589915B1, “Benzohetero cyclylcyclo hexenones and their use as herbicides” (BASF Aktiengesellschaft, priority 1999, dated 2003).
# How the values were obtained:
# Assay type in all cases: in vivo
# [1] = system: PHPBU; test: greenhouse post-emergence herbicidal test; conditions: 0.125 and 0.25 kg/ha (a.s.)
# From the text: (§1) The seeds of the test plants were sown separately for each species. For the post-emergence treatment, the test plants were first, grown to a plant height of from 3 to 15 cm, depending on the plant habit, and only then treated with the active ingredients which had been suspended or emulsified in water. To this end, the test plants were either sown directly and grown in the same containers, or they were first grown separately as seedlings and transplanted into the test containers a few days prior to treatment. The rat e of application for the post-emergence treatment was 0.25 or 0.125 kg of a.s. (active substance)/ha. Depending on the species, the plants were kept at from 10 to 25° C., or 20 to 35° C., respectively. The test period extended over 2 to 4 weeks. During this time, the plants were tended, and their response to the individual treatments was evaluated. Evaluation was carried out using a scale of from 0 to 100. 100 means no emergence of the plants, or complete destruction of at least the aerial parts, and 0 means no damage, or normal course of growth. [table] The following experiments were performed by the post-emergence method.
# [2] = system: SETFA (giant foxtail); test: greenhouse post-emergence herbicidal test
# From the text: as §1, with “The rat e of application for the post-emergence treatment was 0.25 or 0.125 kg of a.s. (active substance)/ha.” left out
# [3] = system: CHEAL (lambsquarters (goosefoot)); test: greenhouse post-emergence herbicidal test
# From the text: as §1, with “The rat e of application for the post-emergence treatment was 0.25 or 0.125 kg of a.s. (active substance)/ha.” left out
# [4] = system: POLPE (ladysthumb); test: greenhouse post-emergence herbicidal test
# From the text: as §1, with “The rat e of application for the post-emergence treatment was 0.25 or 0.125 kg of a.s. (active substance)/ha.” left out
# [5] = system: ECHCG (barnyard grass); test: greenhouse post-emergence herbicidal test
# From the text: as §1, with “The rat e of application for the post-emergence treatment was 0.25 or 0.125 kg of a.s. (active substance)/ha.” left out
# [6] = system: ABUTH (velvet leaf); test: greenhouse post-emergence herbicidal test
# From the text: as §1, with “The rat e of application for the post-emergence treatment was 0.25 or 0.125 kg of a.s. (active substance)/ha.” left out
# [7] = system: GALAP (catchweed bedstraw); test: greenhouse post-emergence herbicidal test; conditions: 0.125 and 0.25 kg/ha (a.s.)
# From the text: as §1
# [8] = system: AMARE (redroot pigweed); test: greenhouse post-emergence herbicidal test
# From the text: as §1, with “The rat e of application for the post-emergence treatment was 0.25 or 0.125 kg of a.s. (active substance)/ha.” left out
# [9] = system: IPOSS; test: greenhouse post-emergence herbicidal test
# From the text: as §1, with “The rat e of application for the post-emergence treatment was 0.25 or 0.125 kg of a.s. (active substance)/ha.” left out, “growth.” for “growth. [table]”
# [10] = system: wheat; test: greenhouse post-emergence test, crop selectivity; conditions: 0.25 and 0.5 kg/ha (a.s.)
# From the text: as §1, with “The rat e of application for the post-emergence treatment was 0.25 or 0.125 kg of a.s. (active substance)/ha.” left out
smiles,measurement,setting,value
COCc1nc2c(C)c(C(=O)C3=C(O)C4CCC(C4)C3=O)ccc2s1 (centres unmarked) [Example I-1x.420],herbicidal action against PHPBU,[1],very good
same,herbicidal action against SETFA,[2]; 0.125 and 0.25 kg/ha (a.s.),very good
same,herbicidal action against CHEAL,[3]; 0.125 and 0.25 kg/ha (a.s.),very good
same,herbicidal action against POLPE,[4]; 0.125 and 0.25 kg/ha (a.s.),very good
same,herbicidal action against ECHCG,[5]; 0.125 and 0.25 kg/ha (a.s.),very good
CCc1nc2c(C)c(C(=O)C3=C(O)C4CCC(C4)C3=O)ccc2o1 (centres unmarked) [Example I-2x.406],herbicidal action against CHEAL,[3]; 0.0625 and 0.125 kg/ha (a.s.),good to very good
same,herbicidal action against POLPE,[4]; 0.0625 and 0.125 kg/ha (a.s.),good to very good
same,herbicidal action against ABUTH,[6]; 0.0625 and 0.125 kg/ha (a.s.),good to very good
same,herbicidal action against ECHCG,[5]; 0.0625 and 0.125 kg/ha (a.s.),good to very good
Cc1c(C(=O)C2=C(O)CCCC2=O)ccc2sc(C(C)C)nc12 [Example I-1a.408],herbicidal action against CHEAL,[3]; 0.125 and 0.25 kg/ha (a.s.),good to very good
same,herbicidal action against POLPE,[4]; 0.125 and 0.25 kg/ha (a.s.),good to very good
same,herbicidal action against ABUTH,[6]; 0.125 and 0.25 kg/ha (a.s.),good to very good
same,herbicidal action against ECHCG,[5]; 0.125 and 0.25 kg/ha (a.s.),good to very good
CCc1nc2c(C)c(C(=O)C3=C(O)CCCC3=O)ccc2o1 [Example I-2a.406],herbicidal action against GALAP,[7],good
same,herbicidal action against AMARE,[8]; 0.125 and 0.25 kg/ha (a.s.),very good
same,herbicidal action against CHEAL,[3]; 0.125 and 0.25 kg/ha (a.s.),very good
same,herbicidal action against ABUTH,[6]; 0.125 and 0.25 kg/ha (a.s.),very good
same,herbicidal action against IPOSS,[9]; 0.125 and 0.25 kg/ha (a.s.),very good
CCc1nc2c(C)c(C(=O)C3=C(O)C4CCC(C4)C3=O)ccc2s1 (centres unmarked) [Example I-1x.406],herbicidal action against CHEAL,[3]; 0.125 and 0.25 kg/ha (a.s.),very good
same,herbicidal action against POLPE,[4]; 0.125 and 0.25 kg/ha (a.s.),very good
same,herbicidal action against ABUTH,[6]; 0.125 and 0.25 kg/ha (a.s.),very good
same,herbicidal action against ECHCG,[5]; 0.125 and 0.25 kg/ha (a.s.),very good
CSc1nc2c(C)c(C(=O)C3=C(O)C4CCC(C4)C3=O)ccc2s1 (centres unmarked) [Example I-1x.435],herbicidal action against AMARE,[8]; 0.0625 and 0.125 kg/ha (a.s.),very good
same,herbicidal action against CHEAL,[3]; 0.0625 and 0.125 kg/ha (a.s.),very good
same,herbicidal action against ECHCG,[5]; 0.0625 and 0.125 kg/ha (a.s.),very good
Cc1c(C(=O)C2=C(O)CCCC2=O)ccc2scnc12 [Example I-1a.394],selectivity in wheat,[10],selectivity
same,herbicidal action against AMARE,[8]; 0.25 and 0.5 kg/ha (a.s.),very good
same,herbicidal action against CHEAL,[3]; 0.25 and 0.5 kg/ha (a.s.),very good
same,herbicidal action against POLPE,[4]; 0.25 and 0.5 kg/ha (a.s.),very good
same,herbicidal action against IPOSS,[9]; 0.25 and 0.5 kg/ha (a.s.),very good
Cc1c(C(=O)C2=C(O)CC(C)(C)CC2=O)ccc2sc(Cl)nc12 [Example I-1c.396],herbicidal action against AMARE,[8]; 0.25 and 0.5 kg/ha (a.s.),good to very good
same,herbicidal action against SETFA,[2]; 0.25 and 0.5 kg/ha (a.s.),good to very good
same,herbicidal action against CHEAL,[3]; 0.25 and 0.5 kg/ha (a.s.),good to very good
same,herbicidal action against ECHCG,[5]; 0.25 and 0.5 kg/ha (a.s.),good to very good
Cc1c(C(=O)C2=C(O)C3CCC(C3)C2=O)ccc2sc(Oc3ccccc3F)nc12 (centres unmarked) [Example I-1x.790],herbicidal action against SETFA,[2]; 0.125 and 0.25 kg/ha (a.s.),very good
same,herbicidal action against CHEAL,[3]; 0.125 and 0.25 kg/ha (a.s.),very good
same,herbicidal action against POLPE,[4]; 0.125 and 0.25 kg/ha (a.s.),very good
same,herbicidal action against ECHCG,[5]; 0.125 and 0.25 kg/ha (a.s.),very good
